In publication PMC6941404, “Pigmentosins from Gibellula sp. as antibiofilm agents and a new glycosylated asperfuran from Cordyceps javanica” (Beilstein Journal of Organic Chemistry, 2019):
≈ marks a conversion by molar mass, not a printed value. Where two headings read alike, the source gives them in different places.

What was measured:
B. subtilis = test system: B. subtilis; set-up: method as in PMID 22889083; settings: reported by Grove and co-workers; cited from earlier work
Bacillus subtilis DSM10 = experiment: Antimicrobial activity, broth microdilution MIC; type: cell-based; settings: for MIC: read-out: Antimicrobial activity (MIC) BS
Procedure: (§1) To evaluate the biological effects of compounds 1–6, various assays were carried out. The antimicrobial activity of the isolated compounds against Bacillus subtilis DSM10, Escherichia coli DSM498, Candida tenuis MUCL29892, and Mucor plumbeus MUCL49355 was determined as described by Kuephadungphan and co-workers. The nematicidal activity against Caenorhabditis elegans was investigated using a microtiter plate assay according to Helaly and co-workers, while the cytotoxicity was tested against murine fibroblast (L929) and human HeLa (KB3.1) cell lines according to Chepkirui and co-workers.
Biological activity screening of compounds 1–6
Antimicrobial activity assay
The minimum inhibitory concentration (MIC) of compounds 1–6 was determined using the broth microdilution method according to Kuephadungphan et al.4 against B. subtilis DSM10, E. coli DSM498, C. tenuis MUCL29892 and M. plumbeus MUCL49355. Stock suspension of each bacterium and yeast (100 μL) was transferred to 100 mL of EBS medium and YM medium, respectively.
Suspensions of B. subtilis and C. tenuis were incubated on a rotary shaker at 30 °C for 18–24 h while E. coli was grown at 37 °C for 24 h. After incubation, the suspension was adjusted to a concentration of 6.7 × 10^5 cells/mL using a hemacytometer. The spore suspension of M. plumbeus was prepared at a concentration of 6.7 × 10^5 conidia/mL using YM medium. The determination of MIC was performed in a 96-well microtiter plate. The compounds dissolved in methanol at a concentration of 4.5 mg/mL (20 μL) were transferred to the first row of the plate. Standard antibiotics including ciprofloxacin (bacteria) and nystatin (yeast and fungus), and methanol were used as positive and negative controls, respectively. Inoculum suspension (280 μL) was added to the first row containing compounds and 150 μL were added to the rest. The solutions were then serially 2-fold diluted to 8 concentrations ranging from 2.34–300 μg/mL. Plates were incubated at 30 °C on a microplate-vibrating shaker for 24 h for bacteria and 48 h for yeast and filamentous fungus. […]
(§2) The assay was kindly conducted by Wera Collisi, Department of Microbial Drugs, Helmholtz Centre of Infection Research, Germany. The tested cell lines were cultured in EBM -2 (Lonza) sup plemented with 10% fetal bovine serum (Gibco) under 10% CO2 at 37 °C. A 60 µL of serial dilutions from an initial stock (1 mg/mL) of the test compounds in MeOH was added to 120 µL aliquots of a cell suspension (50,000 cells/mL) in 96-well microplates.
After incubation for five days, 20 µL of MTT in phosphate buffered saline (PBS) were added to give a final concentration of 0.5 mg/mL. The plates were further incubated for two hours. The precipitate

Cytotoxicity assay (MTT) = type: cell-based; settings: human; HeLa cell line KB3.1; MTT, five days; NA = No activity; a = Proliferation inhibition, no altered or dead cells
Procedure: as §1
Biological activity screening of compounds 1–6 […]
as §2, with “The isolated compounds were tested for cytotoxic activity using the MTT (3 -(4,5-dimethylthiayol -2-yl)-2,5-diphenyltetrayolium bromide) method in 96 -well microtiter plates following the procedure previously described by Chepkirui et al.7 against th e cervix carcino ma cell line KB3.1 and the established mouse fibroblast cell line L929. The assay” for “The assay”
After incubation for five days, 20 µL of MTT in phosphate buffered saline (PBS) were added to give a final concentration of 0.5 mg/mL. The plates were further incubated for two hours. The precipitate […]
of formazan crystals was centrifuged and the supernatant was then discarded. Each well was washed with 100 µL of PBS and 100 µL of isopropanol containing 0.4% hydrochloric acid were subsequently added in order to get the residual dissolved. The plates were gently shaken for 20 min before the absorbance at 590 nm was measured using an ELISA microplate reader (Victor). The concentration, at which the growth of cells was inhibited to 50% of the control (IC50), was obtained from the dose - response curves. Methanol was used as negative control while epothilone A and B wer e used as positive controls for L929 and KB3.1 cell lines, respectively. […]
After incubation at 37 °C under shaking condition, the overnight cultures were adjusted to equal the turbidity of 0.5 McFarland standard using the assay medium. The assay was carried out in 96 -well tissue cultured -treated microplates (TPP®, Germany) for S. aureus and non-treated plates (Falcon®MicroTestTM, USA) for P. aeruginosa , in which 10 μ L of each compound (0.5 mg/m L) in six replicates were mixed together with 140 μ L of bacterial suspension. Methanol and CASO medium with and without 4% glucose were used as negative controls and tetracycline (100 μg/m L) as positive control. Plates were covered with a sterile adhesive porous paper (Kisker Biotech GmbH, Steinfurt, Germany) and incubated at 37 °C for 24 h.
After incubation, ba cterial biofilms were stained with 0.1% crystal violet solution (Sigma -Aldrich) following the protocol of O’Toole .9 Then, the biofilm was subsequently quantified using a microplate reader at 550 nm. […]
aeruginosa PA14 were further evaluated for their bacteriostatic and bactericidal activit ies. The assay was performed in the Bioscreen 100 -well Honeycomb plate according to the protocol described by Yuyama et al. 13 where the MIC values were determined. […]

[1] = Bacillus subtilis DSM10, 24 h, range 2.34–300 μg/mL, NA = No activity

Row | Compound | MIC against B. subtilis (B. subtilis) [µg/mL] | Antimicrobial activity (MIC) BS (Bacillus subtilis DSM10; [1]) [µg/mL] | MIC (Bacillus subtilis DSM10; Bacillus subtilis, DSM10, 24 h) [µg/mL] | IC50 (Cytotoxicity assay (MTT)) [µg/mL] | MIC (Bacillus subtilis DSM10; [1]) [µg/mL]
1 | COc1cc(O)c2c(O)c3c(cc2c1-c1c(OC)cc(O)c2c(O)c4c(cc12)CC(C)OC4=O)CC(C)OC3=O (stereo not drawn) [Pigmentosin A (1), pigmentosin A] | 20 (≈ 36.6 µM) | 12.5 | 12.5 (≈ 22.9 µM) | 17 (≈ 31.1 µM) | –
2 | COc1cc(O)c2c(O)c3c(cc2c1-c1c(OC)cc(O)c2c(O)c4c(cc12)CC(CC(C)O)OC4=O)CC(C)OC3=O (stereo not drawn) [Pigmentosin B (2), pigmentosin B] | – | 100 | – | – | 100 (≈ 169 µM)
